Measurements as given in US9884063B2, “Amido-substituted azole compounds” (Bayer Pharma Aktiengesellschaft, priority 2014, dated 2018).

Target: T1, TNKS2 (Homo sapiens, UniProt Q9H2K2)
T1 sequence (Q9H2K2 1-1166): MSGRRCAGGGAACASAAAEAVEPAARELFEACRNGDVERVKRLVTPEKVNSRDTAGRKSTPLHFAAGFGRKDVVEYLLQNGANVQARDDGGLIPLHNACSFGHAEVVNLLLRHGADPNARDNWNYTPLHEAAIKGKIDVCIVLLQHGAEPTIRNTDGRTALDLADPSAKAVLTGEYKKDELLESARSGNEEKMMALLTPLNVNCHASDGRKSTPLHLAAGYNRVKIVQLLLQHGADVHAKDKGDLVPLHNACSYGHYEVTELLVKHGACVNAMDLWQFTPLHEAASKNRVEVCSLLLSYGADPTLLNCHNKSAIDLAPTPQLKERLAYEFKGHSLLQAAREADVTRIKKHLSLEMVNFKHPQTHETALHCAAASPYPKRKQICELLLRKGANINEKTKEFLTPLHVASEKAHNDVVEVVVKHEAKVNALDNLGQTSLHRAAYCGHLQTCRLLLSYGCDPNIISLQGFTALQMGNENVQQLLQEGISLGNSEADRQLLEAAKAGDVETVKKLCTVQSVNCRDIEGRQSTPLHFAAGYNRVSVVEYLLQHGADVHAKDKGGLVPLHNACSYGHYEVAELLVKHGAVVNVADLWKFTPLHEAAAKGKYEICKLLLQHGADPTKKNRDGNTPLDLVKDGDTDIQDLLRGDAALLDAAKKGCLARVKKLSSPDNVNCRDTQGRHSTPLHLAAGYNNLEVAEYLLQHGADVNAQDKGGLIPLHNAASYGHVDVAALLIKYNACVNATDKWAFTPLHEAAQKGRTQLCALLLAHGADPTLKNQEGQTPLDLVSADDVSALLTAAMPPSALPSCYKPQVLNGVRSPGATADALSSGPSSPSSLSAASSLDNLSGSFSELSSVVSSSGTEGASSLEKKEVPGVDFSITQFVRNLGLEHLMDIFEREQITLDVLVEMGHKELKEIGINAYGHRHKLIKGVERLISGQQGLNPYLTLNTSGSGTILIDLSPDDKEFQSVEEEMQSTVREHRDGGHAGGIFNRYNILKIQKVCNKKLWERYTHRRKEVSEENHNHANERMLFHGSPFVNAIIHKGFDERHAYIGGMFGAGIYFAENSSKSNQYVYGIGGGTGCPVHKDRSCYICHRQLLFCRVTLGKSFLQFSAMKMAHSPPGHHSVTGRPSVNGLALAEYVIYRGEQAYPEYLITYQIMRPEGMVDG
Assay: Modified TNKS2 Assay 2 (auto-parsylation, [3H]-NAD+ SPA)
Type: biochemical
Details: 6 nM TNKS2, 96 well

SMILES | IC50 [nM]
CC(CN1CCOCC1)NC(=O)c1[nH]cnc1C(=O)Nc1ccc(NC(=O)c2ccc(F)cc2Cl)cc1 (single isomer, unassigned; enantiomer 2) [Example 270, N^4-{4-[(2-chloro-4-fluorobenzoyl)amino]phenyl}-N^5-[1-(morpholin-4-yl)propan-2-yl]-1H-imidazole-4,5-dicarboxamide (enantiomer 2)] | 3
CNC(=O)c1nc[nH]c1C(=O)Nc1ccc(NC(=O)c2ccccc2)cc1 [Example 21, N^5-[4-(benzoylamino)phenyl]-N^4-methyl-1H-imidazole-4,5-dicarboxamide] | > 10000
CN(C)CCNC(=O)c1nc[nH]c1C(=O)Nc1ccc(NC(=O)c2ccc(F)cc2Cl)cc1 [Example 22, N^4-{4-[(2-chloro-4-fluorobenzoyl)amino]phenyl}-N^5-[2-(dimethylamino)ethyl]-1H-imidazole-4,5-dicarboxamide] | 20
O=C(Nc1ccc(NC(=O)c2[nH]cnc2C(=O)N2CCOCC2)cc1)c1ccc(F)cc1Cl [Example 29, N-{4-[(2-chloro-4-fluorobenzoyl)amino]phenyl}-5-(morpholin-4-ylcarbonyl)-1H-imidazole-4-carboxamide] | 1900
O=C(Nc1ccc(NC(=O)c2[nH]cnc2C(=O)NCCN2CCCCC2)cc1)c1ccc(F)cc1Cl [Example 32, N^4-{4-[(2-chloro-4-fluorobenzoyl)amino]phenyl}-N^5-[2-(piperidin-1-yl)ethyl]-1H-imidazole-4,5-dicarboxamide] | 0.3
CNC(=O)c1nc[nH]c1C(=O)Nc1ccc(NC(=O)c2c(Cl)cccc2C(F)(F)F)cc1 [Example 36, N^5-(4-{[2-chloro-6-(trifluoromethyl)benzoyl]amino}phenyl)-N^4-methyl-1H-imidazole-4,5-dicarboxamide] | > 10000
CCc1ccccc1C(=O)Nc1ccc(NC(=O)c2[nH]cnc2C(=O)NC)cc1 [Example 39, N^5-{4-[(2-ethylbenzoyl)amino]phenyl}-N^4-methyl-1H-imidazole-4,5-dicarboxamide] | 2200
O=C(Nc1ccc(NC(=O)c2[nH]cnc2C(=O)NCCC2CCCC2)cc1)c1ccc(F)cc1Cl [Example 42, N^5-{4-[(2-chloro-4-fluorobenzoyl)amino]phenyl}-N^4-(2-cyclopentylethyl)-1H-imidazole-4,5-dicarboxamide] | > 10000
O=C(Nc1ccc(NC(=O)c2[nH]cnc2C(=O)NCCC2CC2)cc1)c1ccc(F)cc1Cl [Example 43, N^5-{4-[(2-chloro-4-fluorobenzoyl)amino]phenyl}-N^4-(2-cyclopropylethyl)-1H-imidazole-4,5-dicarboxamide] | > 10000
CN1CC2(C1)CN(C(=O)c1nc[nH]c1C(=O)Nc1ccc(NC(=O)c3ccc(F)cc3Cl)cc1)C2 [Example 46, N-{4-[(2-chloro-4-fluorobenzoyl)amino]phenyl}-4-[(6-methyl-2,6-diazaspiro[3.3]hept-2-yl)carbonyl]-1H-imidazole-5-carboxamide] | 1100
O=C(Nc1ccc(NC(=O)c2[nH]cnc2C(=O)NCCC2CCCC2)cc1)c1cc(F)c(F)cc1Cl [Example 48, N^5-{4-[(2-chloro-4,5-difluorobenzoyl)amino]phenyl}-N^4-(2-cyclopentylethyl)-1H-imidazole-4,5-dicarboxamide] | > 10000
O=C(Nc1ccc(NC(=O)c2[nH]cnc2C(=O)NC2CC2)cc1)c1cc(F)c(F)cc1Cl [Example 51, N^5-{4-[(2-chloro-4,5-difluorobenzoyl)amino]phenyl}-N^4-cyclopropyl-1H-imidazole-4,5-dicarboxamide] | 50
O=C(Nc1ccc(NC(=O)c2[nH]cnc2C(=O)N2CC3(COC3)C2)cc1)c1cc(F)c(F)cc1Cl [Example 52, N-{4-[(2-chloro-4,5-difluorobenzoyl)amino]phenyl}-4-(2-oxa-6-azaspiro[3.3]hept-6-ylcarbonyl)-1H-imidazole-5-carboxamide] | 220
CS(=O)(=O)c1ccc(C(=O)Nc2ccc(NC(=O)c3[nH]cnc3C(=O)NCCN3CCCCC3)cc2)c(Cl)c1 [Example 53, N^5-(4-{[2-chloro-4-(methylsulfonyl)benzoyl]amino}phenyl)-N^4-[2-(piperidin-1-yl)ethyl]-1H-imidazole-4,5-dicarboxamide] | 10
CNC(=O)c1nc[nH]c1C(=O)Nc1ccc(NC(=O)c2ccc(S(C)(=O)=O)cc2Cl)cc1 [Example 55, N^5-(4-{[2-chloro-4-(methylsulfonyl)benzoyl]amino}phenyl)-N^4-methyl-1H-imidazole-4,5-dicarboxamide] | 70
CNC(=O)c1nc[nH]c1C(=O)Nc1ccc(NC(=O)c2ccc(F)cc2Br)cc1 [Example 56, N^5-{4-[(2-bromo-4-fluorobenzoyl)amino]phenyl}-N^4-methyl-1H-imidazole-4,5-dicarboxamide] | 570
CNC(=O)c1nc[nH]c1C(=O)Nc1ccc(NC(=O)c2ccccc2OC)cc1 [Example 60, N^5-{4-[(2-methoxybenzoyl)amino]phenyl}-N^4-methyl-1H-imidazole-4,5-dicarboxamide] | > 10000
CNC(=O)c1nc[nH]c1C(=O)Nc1ccc(NC(=O)c2ccc(F)cc2I)cc1 [Example 61, N^5-{4-[(4-fluoro-2-iodobenzoyl)amino]phenyl}-N^4-methyl-1H-imidazole-4,5-dicarboxamide] | 60
O=C(Nc1ccc(NC(=O)c2[nH]cnc2C(=O)NCCN2CCCCC2)cc1)c1ccc(F)cc1I [Example 62, N^5-{4-[(4-fluoro-2-iodobenzoyl)amino]phenyl}-N^4-[2-(piperidin-1-yl)ethyl]-1H-imidazole-4,5-dicarboxamide] | 310
CNC(=O)c1nc[nH]c1C(=O)Nc1ccc(NC(=O)c2cc(OC(F)(F)F)ccc2Br)cc1 [Example 64, N^5-(4-{[2-bromo-5-(trifluoromethoxy)benzoyl]amino}phenyl)-N^4-methyl-1H-imidazole-4,5-dicarboxamide] | > 10000
Cc1nc(C(=O)Nc2ccc(NC(=O)c3ccc(F)cc3Cl)cc2)c(C(=O)NCCN(C)C)[nH]1 [Example 66, N^4-{4-[(2-chloro-4-fluorobenzoyl)amino]phenyl}-N^5-[2-(dimethylamino)ethyl]-2-methyl-1H-imidazole-4,5-dicarboxamide] | 40
Cc1nc(C(=O)Nc2ccc(NC(=O)c3ccc(F)cc3Cl)cc2)c(C(=O)NCCN2CCCCC2)[nH]1 [Example 67, N^4-{4-[(2-chloro-4-fluorobenzoyl)amino]phenyl}-2-methyl-N^5-[2-(piperidin-1-yl)ethyl]-1H-imidazole-4,5-dicarboxamide] | 30
CCc1nc(C(=O)Nc2ccc(NC(=O)c3ccc(F)cc3Cl)cc2)c(C(=O)NC)[nH]1 [Example 68, N^4-{4-[(2-chloro-4-fluorobenzoyl)amino]phenyl}-2-ethyl-N^5-methyl-1H-imidazole-4,5-dicarboxamide] | > 10000
COC(=O)c1nc[nH]c1C(=O)Nc1ccc(NC(=O)c2ccc(F)cc2Cl)c(F)c1 [Example 71, methyl 5-({4-[(2-chloro-4-fluorobenzoyl)amino]-3-fluorophenyl}carbamoyl)-1H-imidazole-4-carboxylate] | 110
CN(C)CCNC(=O)c1nc[nH]c1C(=O)Nc1ccc(NC(=O)c2ccc(F)cc2Cl)c(F)c1 [Example 73, N^5-{4-[(2-chloro-4-fluorobenzoyl)amino]-3-fluorophenyl}-N^4-[2-(dimethylamino)ethyl]-1H-imidazole-4,5-dicarboxamide] | 30
CN(C)CCNC(=O)c1nc[nH]c1C(=O)Nc1ccc(NC(=O)c2ccc(F)cc2)c(F)c1 [Example 77, N^4-[2-(dimethylamino)ethyl]-N^5-{3-fluoro-4-[(4-fluorobenzoyl)amino]phenyl}-1H-imidazole-4,5-dicarboxamide] | 1800
O=C(Nc1ccc(NC(=O)c2[nH]cnc2C(=O)NCCN2CCCCC2)cc1F)c1ccc(F)cc1 [Example 78, N^5-{3-fluoro-4-[(4-fluorobenzoyl)amino]phenyl}-N^4-[2-(piperidin-1-yl)ethyl]-1H-imidazole-4,5-dicarboxamide] | > 10000
CNC(=O)c1nc[nH]c1C(=O)Nc1ccc(NC(=O)c2ccccc2Cl)c(F)c1 [Example 80, N^5-{4-[(2-chlorobenzoyl)amino]-3-fluorophenyl}-N^4-methyl-1H-imidazole-4,5-dicarboxamide] | 700
CN(C)CCNC(=O)c1nc[nH]c1C(=O)Nc1ccc(NC(=O)c2ccccc2Cl)c(F)c1 [Example 81, N^5-{4-[(2-chlorobenzoyl)amino]-3-fluorophenyl}-N^4-[2-(dimethylamino)ethyl]-1H-imidazole-4,5-dicarboxamide] | 160
